Patent US20160168126A1, “CHEMICAL COMPOUNDS” (SYNGENTA LIMITED, priority 2013, published 2016)

System: a variety of test species
Assay: Post-emergence herbicidal activity (glasshouse, sprayed 8 days after sowing, evaluated after 13 days); on Post-emergence herbicidal damage score, ABUTH (Abutilon theophrasti): key: 5=total damage to plant; 0=no damage to plant; on Post-emergence herbicidal damage score, AMARE (Amaranthus retroflexus): key: 5=total damage to plant; 0=no damage to plant
Type: in vivo
Details: scale 0-5
Summary of the method: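 Pot-grown seedlings sprayed 8 days after sowing with active ingredient in acetone/water (50:50) plus 0.5% Tween 20. Glasshouse at 24/16 °C day/night, 14 h light, 65% humidity, watered twice daily. Damage scored after 13 days on a 0–5 scale (5 = total damage, 0 = none).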

Compound	Post-emergence herbicidal damage score, ABUTH (Abutilon theophrasti) (250 g/ha)	Post-emergence herbicidal damage score, ALOMY (Alopecurus myosuroides) (250 g/ha)	Post-emergence herbicidal damage score, AMARE (Amaranthus retroflexus) (250 g/ha)	Post-emergence herbicidal damage score, ECHCG (Echinochloa crus-galli) (250 g/ha)	Post-emergence herbicidal damage score, SETFA (Setaria faberi) (250 g/ha)	Post-emergence herbicidal damage score, ZEAMX (Zea mays) (250 g/ha)	Post-emergence herbicidal damage score, ABUTH (Abutilon theophrasti) (1000 g/ha)	Post-emergence herbicidal damage score, ALOMY (Alopecurus myosuroides) (1000 g/ha)	Post-emergence herbicidal damage score, AMARE (Amaranthus retroflexus) (1000 g/ha)	Post-emergence herbicidal damage score, ECHCG (Echinochloa crus-galli) (1000 g/ha)	Post-emergence herbicidal damage score, SETFA (Setaria faberi) (1000 g/ha)	Post-emergence herbicidal damage score, ZEAMX (Zea mays) (1000 g/ha)
COC1=C(C)C(=O)N(c2cc(C(C)(C)C)n(C)n2)C1O (stereo not drawn) [Compound I2]	5	4	5	3	4	1						
COC1=C(C)C(=O)N(c2cc(C(F)(F)F)n(C)n2)C1O (stereo not drawn) [Compound I3]							5	5	5	5	5	4
COC1=C(C)C(=O)N(c2nn(C)c3c2CCC3(C)C)C1O (stereo not drawn) [Compound I4]							5	5	5	5	5	3
COC1=C(C)C(=O)N(c2cc3n(n2)CCCC3(C)C)C1O (stereo not drawn) [Compound I5]							5	5	5	5	5	4
COC1=C(Cl)C(O)N(c2cc(C(C)(C)C)n(C)n2)C1=O (stereo not drawn) [Compound J1, 1-(5-tert-butyl-1-methyl-pyrazol-3-yl)-3-chloro-2-hydroxy-4-methoxy-2H-pyrrol-5-one]							5	5	5	5	5	3
